{"source": "the NIST ThermoML archive (doi:10.1016/j.tca.2016.05.011)", "assay": "Boiling temperature at pressure P", "conditions": "Liquid, DSC", "note": "± gives the expanded uncertainty stated by the source.", "data": [{"smiles": "CC(C)(C)c1ccccc1O", "note": "[2-tert-butyl-1-hydroxybenzene]", "values": [{"measurement": "Boiling temperature at pressure P", "setting": "9.9 kPa", "value": "145.4 ± 1.6", "unit": "°C"}, {"measurement": "Boiling temperature at pressure P", "setting": "19.82 kPa", "value": "165.5 ± 2.6", "unit": "°C"}, {"measurement": "Boiling temperature at pressure P", "setting": "29.75 kPa", "value": "178.6 ± 2.3", "unit": "°C"}, {"measurement": "Boiling temperature at pressure P", "setting": "49.63 kPa", "value": "196.2 ± 3.1", "unit": "°C"}, {"measurement": "Boiling temperature at pressure P", "setting": "64.61 kPa", "value": "206.1 ± 3.3", "unit": "°C"}]}, {"smiles": "Cc1ccccc1", "note": "[toluene]", "values": [{"measurement": "Boiling temperature at pressure P", "setting": "29.65 kPa", "value": "72.4 ± 1.8", "unit": "°C"}, {"measurement": "Boiling temperature at pressure P", "setting": "49.44 kPa", "value": "87.5 ± 2.5", "unit": "°C"}, {"measurement": "Boiling temperature at pressure P", "setting": "69.2 kPa", "value": "98.0 ± 2.4", "unit": "°C"}, {"measurement": "Boiling temperature at pressure P", "setting": "101.6 kPa", "value": "111.2 ± 3.2", "unit": "°C"}, {"measurement": "Boiling temperature at pressure P", "setting": "247.5 kPa", "value": "145.5 ± 4.5", "unit": "°C"}]}]}
